# Columns and labels:
# [1] = target: CDK12 (Homo sapiens, UniProt Q9NYV4); test: Inhibition of cyclin-dependent kinase 12 (% enzyme activity at 1 uM and IC50); type: biochemical; conditions: for remaining activity at 1 µM: 1 uM compound
# [2] = system: MDA-MB-231 cell line; test: Antiproliferative activity, MDA-MB-231 cell line (GI50); type: cell-based; conditions: Homo sapiens
# [3] = system: CCNK; test: CCNK degradation (DC50, Dmax); type: cell-based; conditions: for Dmax (%): CCNK degradation
# Chain of CDK12 (Q9NYV4 whole entry): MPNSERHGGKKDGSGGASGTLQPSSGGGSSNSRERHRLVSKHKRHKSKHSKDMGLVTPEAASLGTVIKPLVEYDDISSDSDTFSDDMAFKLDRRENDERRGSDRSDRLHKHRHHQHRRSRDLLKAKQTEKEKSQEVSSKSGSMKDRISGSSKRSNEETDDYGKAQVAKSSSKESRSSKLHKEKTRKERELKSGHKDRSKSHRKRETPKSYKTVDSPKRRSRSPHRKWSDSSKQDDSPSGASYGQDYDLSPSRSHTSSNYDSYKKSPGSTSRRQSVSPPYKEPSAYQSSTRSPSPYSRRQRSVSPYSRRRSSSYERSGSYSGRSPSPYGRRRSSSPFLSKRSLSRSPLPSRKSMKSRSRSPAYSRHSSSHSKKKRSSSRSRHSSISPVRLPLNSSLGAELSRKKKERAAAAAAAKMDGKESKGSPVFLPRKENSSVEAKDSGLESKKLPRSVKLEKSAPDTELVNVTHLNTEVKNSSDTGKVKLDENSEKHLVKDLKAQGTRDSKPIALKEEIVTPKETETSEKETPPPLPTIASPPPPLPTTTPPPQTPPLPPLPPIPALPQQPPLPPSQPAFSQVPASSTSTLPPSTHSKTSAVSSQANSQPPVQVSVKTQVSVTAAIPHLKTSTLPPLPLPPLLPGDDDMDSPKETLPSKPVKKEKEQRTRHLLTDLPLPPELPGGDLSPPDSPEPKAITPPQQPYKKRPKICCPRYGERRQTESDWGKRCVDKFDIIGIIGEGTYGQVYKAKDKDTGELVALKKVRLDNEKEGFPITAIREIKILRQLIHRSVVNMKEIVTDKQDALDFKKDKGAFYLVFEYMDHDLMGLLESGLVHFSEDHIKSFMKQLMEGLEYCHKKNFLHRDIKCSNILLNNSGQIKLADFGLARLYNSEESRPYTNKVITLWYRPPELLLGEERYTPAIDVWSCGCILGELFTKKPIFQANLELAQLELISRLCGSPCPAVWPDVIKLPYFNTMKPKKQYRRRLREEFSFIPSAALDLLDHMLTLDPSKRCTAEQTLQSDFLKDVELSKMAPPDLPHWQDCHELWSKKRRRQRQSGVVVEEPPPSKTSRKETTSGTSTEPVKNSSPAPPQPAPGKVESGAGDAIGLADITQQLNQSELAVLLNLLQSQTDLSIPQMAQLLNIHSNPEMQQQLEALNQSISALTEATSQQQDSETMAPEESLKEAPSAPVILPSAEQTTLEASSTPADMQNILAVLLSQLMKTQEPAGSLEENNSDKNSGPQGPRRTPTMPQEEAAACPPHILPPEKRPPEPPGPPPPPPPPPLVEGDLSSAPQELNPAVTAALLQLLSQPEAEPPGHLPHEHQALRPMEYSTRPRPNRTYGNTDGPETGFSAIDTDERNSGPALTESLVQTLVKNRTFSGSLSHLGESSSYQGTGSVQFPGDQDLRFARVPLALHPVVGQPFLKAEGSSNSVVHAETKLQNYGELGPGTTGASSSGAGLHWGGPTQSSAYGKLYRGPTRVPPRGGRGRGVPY
# Chain of CDK12 (O75909 whole entry partner): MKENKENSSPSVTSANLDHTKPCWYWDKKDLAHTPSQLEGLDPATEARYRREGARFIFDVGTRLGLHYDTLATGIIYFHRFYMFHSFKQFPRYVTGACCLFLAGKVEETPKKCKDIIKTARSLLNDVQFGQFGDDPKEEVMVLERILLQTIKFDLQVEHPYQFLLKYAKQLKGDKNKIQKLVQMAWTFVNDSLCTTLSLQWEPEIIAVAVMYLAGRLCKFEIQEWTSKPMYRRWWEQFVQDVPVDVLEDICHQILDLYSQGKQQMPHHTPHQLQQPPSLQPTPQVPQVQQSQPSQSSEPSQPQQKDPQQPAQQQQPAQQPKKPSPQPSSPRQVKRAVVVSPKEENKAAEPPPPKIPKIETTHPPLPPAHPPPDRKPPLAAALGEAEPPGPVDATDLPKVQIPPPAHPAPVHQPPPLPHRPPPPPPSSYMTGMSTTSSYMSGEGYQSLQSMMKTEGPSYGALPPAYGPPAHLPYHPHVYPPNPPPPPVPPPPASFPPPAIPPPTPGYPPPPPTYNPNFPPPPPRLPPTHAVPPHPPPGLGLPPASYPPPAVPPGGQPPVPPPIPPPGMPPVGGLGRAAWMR
Structure (SMILES),IC50 [1] [nM],GI50 [2] [nM],DC50 [3] [nM],Dmax (%) [3] [%],remaining activity at 1 µM [1] [%]
"FC(F)n1cc(-c2cnc3c(NCc4nc5cc(Cl)c(Cl)cc5[nH]4)cc(N4CCOCC4)nn23)cn1 [Cmpd 42, N-((5,6-dichloro-1H-benzo[d]imidazol-2-yl)methyl)-3-(1-(difluoromethyl)-1H-pyrazol-4-yl)-6-morpholinoimidazo[1,2-b]pyridazin-8-amine]",36,127,180,100,–
"CN1CCC(Nc2cc(NCc3nc4cc(Cl)c(Cl)cc4[nH]3)c3ncc(-c4cnn(C(F)F)c4)n3n2)CC1 [Cmpd 46, N8-((5,6-dichloro-1H-benzo[d]imidazol-2-yl)methyl)-3-(1-(difluoromethyl)-1H-pyrazol-4-yl)-N6-(1-methylpiperidin-4-yl) imidazo[1,2-b]pyridazine-6,8-diamine]",68,25,180,100,–
"Fc1ccc2[nH]c(CNc3cc(N4CCOCC4)nn4c(-c5cnn(C6CC6)c5)cnc34)nc2c1F [Cmpd 39, 3-(1-cyclopropyl-1H-pyrazol-4-yl)-N-((4,5-difluoro-1H-benzo[d]imidazol-2-yl)methyl)-6-morpholinoimidazo[1,2-b]pyridazin-8-amine]",–,10000,920,80,61
"Cc1ccnc2[nH]c(CNc3cc(N4CCN(C)CC4)nn4c(-c5cnn(C)c5)cnc34)nc12 [Cmpd 11, 3-(1-methyl-1H-pyrazol-4-yl)-N-((7-methyl-3H-imidazo[4,5-b]pyridin-2-yl)methyl)-6-(4-methylpiperazin-1-yl) imidazo[1,2-b]pyridazin-8-amine]",1000,7930,5600,60,–
"CC1(C)CN(c2cc(NCc3nc4cc(Cl)c(Cl)cc4[nH]3)c3ncc(-c4cnn(C(F)F)c4)n3n2)CCO1 [Cmpd 48, N-((5,6-dichloro-1H-benzo[d]imidazol-2-yl)methyl)-3-(1-(difluoromethyl)-1H-pyrazol-4-yl)-6-(2,2-dimethylmorpholino) imidazo[1,2-b]pyridazin-8-amine]",2440,130,200,100,–
"Clc1cc2nc(CNc3cc(N4CCOCC4)nn4c(-c5ccsc5)cnc34)[nH]c2cc1Cl [Cmpd 64, N-((5,6-dichloro-1H-benzo[d]imidazol-2-yl)methyl)-6-morpholino-3-(thiophen-3-yl) imidazo[1,2-b]pyridazin-8-amine]",4250,168,340,100,–
"Cc1ccnc2[nH]c(CNc3cc(N4CCOCC4)nn4c(-c5cnn(C(F)F)c5)cnc34)nc12 [Cmpd 58, 3-(1-(difluoromethyl)-1H-pyrazol-4-yl)-N-((7-methyl-3H-imidazo[4,5-b]pyridin-2-yl)methyl)-6-morpholinoimidazo[1,2-b]pyridazin-8-amine]",65,406,260,100,–
"Cc1cc(-c2cnc3c(NCc4nc5c(F)cccc5[nH]4)cc(N4CCOCC4)nn23)cs1 [Cmpd 94, N-((4-fluoro-1H-benzo[d]imidazol-2-yl)methyl)-3-(5-methylthiophen-3-yl)-6-morpholinoimidazo[1,2-b]pyridazin-8-amine]",–,1500,1000,80,70
"Clc1cc2nc(CNc3cc(N4CCOCC4)nn4c(-c5cn[nH]c5)cnc34)[nH]c2cc1Cl [Cmpd 61, N-((5,6-dichloro-1H-benzo[d]imidazol-2-yl)methyl)-6-morpholino-3-(1H-pyrazol-4-yl) imidazo[1,2-b]pyridazin-8-amine]",1320,235,590,100,–
"Cn1cc(-c2cnc3c(NCc4nc5cc(Cl)c(Cl)cc5[nH]4)cc(N4CCOCC4)nn23)cn1 [Cmpd 9, N-((5,6-dichloro-1H-benzo[d]imidazol-2-yl)methyl)-3-(1-methyl-1H-pyrazol-4-yl)-6-morpholinoimidazo[1,2-b]pyridazin-8-amine]",9560,564,680,95,–
"CC(C)n1cc(-c2cnc3c(NCc4nc5c(F)cccc5[nH]4)cc(N4CCOCC4)nn23)cn1 [Cmpd 27, N-((4-fluoro-1H-benzo[d]imidazol-2-yl)methyl)-3-(1-isopropyl-1H-pyrazol-4-yl)-6-morpholinoimidazo[1,2-b]pyridazin-8-amine]",1080,10000,1600,50,52
"Cc1ccnc2[nH]c(CNc3cc(N4CCOCC4)nn4c(-c5ccsc5)cnc34)nc12 [Cmpd 76, N-((7-methyl-3H-imidazo[4,5-b]pyridin-2-yl)methyl)-6-morpholino-3-(thiophen-3-yl) imidazo[1,2-b]pyridazin-8-amine]",7380,376,250,75,–
"CC(C)n1cc(-c2cnc3c(NCc4nc5cc(Cl)c(Cl)cc5[nH]4)cc(N4CCOCC4)nn23)cn1 [Cmpd 15, N-((5,6-dichloro-1H-benzo[d]imidazol-2-yl)methyl)-3-(1-isopropyl-1H-pyrazol-4-yl)-6-morpholinoimidazo[1,2-b]pyridazin-8-amine]",3000,4110,2100,65,68
"Fc1cccc2[nH]c(CNc3cc(N4CCOCC4)nn4c(-c5cnn(C6CC6)c5)cnc34)nc12 [Cmpd 36, 3-(1-cyclopropyl-1H-pyrazol-4-yl)-N-((4-fluoro-1H-benzo[d]imidazol-2-yl)methyl)-6-morpholinoimidazo[1,2-b]pyridazin-8-amine]",1220,4670,830,65,45
"Cc1ccnc2[nH]c(CNc3cc(N4CCN(C)CC4)nn4c(-c5ccsc5)cnc34)nc12 [Cmpd 75, N-((7-methyl-3H-imidazo[4,5-b]pyridin-2-yl)methyl)-6-(4-methylpiperazin-1-yl)-3-(thiophen-3-yl) imidazo[1,2-b]pyridazin-8-amine]",38,146,140,80,–
"Clc1cccc2nc(CNc3cc(N4CCNCC4)nn4c(-c5ccsc5)cnc34)[nH]c12 [Cmpd 68, N-((7-chloro-1H-benzo[d]imidazol-2-yl)methyl)-6-(piperazin-1-yl)-3-(thiophen-3-yl) imidazo[1,2-b]pyridazin-8-amine]",65,33,10,90,–
"FC(F)n1cc(-c2cnc3c(NCc4nc5cc(Cl)c(Cl)cc5[nH]4)cc(N4CCNCC4)nn23)cn1 [Cmpd 43, N-((5,6-dichloro-1H-benzo[d]imidazol-2-yl)methyl)-3-(1-(difluoromethyl)-1H-pyrazol-4-yl)-6-(piperazin-1-yl) imidazo[1,2-b]pyridazin-8-amine]",292,49,150,100,–
"Cc1cc(-c2cnc3c(NCc4nc5c(F)c(F)ccc5[nH]4)cc(N4CCOCC4)nn23)cs1 [Cmpd 97, N-((4,5-difluoro-1H-benzo[d]imidazol-2-yl)methyl)-3-(5-methylthiophen-3-yl)-6-morpholinoimidazo[1,2-b]pyridazin-8-amine]",–,10000,1300,75,79
"CN1CCN(c2cc(NCc3nc4c(F)cccc4[nH]3)c3ncc(-c4cnn(C(F)F)c4)n3n2)CC1 [Cmpd 51, 3-(1-(difluoromethyl)-1H-pyrazol-4-yl)-N-((4-fluoro-1H-benzo[d]imidazol-2-yl)methyl)-6-(4-methylpiperazin-1-yl) imidazo[1,2-b]pyridazin-8-amine]",–,5130,1900,50,55
"NC1CCN(c2cc(NCc3nc4cccc(Cl)c4[nH]3)c3ncc(-c4ccsc4)n3n2)C1 (stereo not drawn) [Cmpd 69, 6-(3-aminopyrrolidin-1-yl)-N-((7-chloro-1H-benzo[d]imidazol-2-yl)methyl)-3-(thiophen-3-yl) imidazo[1,2-b]pyridazin-8-amine]",57,92,150,85,–
"CN1CCN(c2cc(NCc3nc4cc(Cl)c(Cl)cc4[nH]3)c3ncc(-c4cn[nH]c4)n3n2)CC1 [Cmpd 60, N-((5,6-dichloro-1H-benzo[d]imidazol-2-yl)methyl)-6-(4-methylpiperazin-1-yl)-3-(1H-pyrazol-4-yl) imidazo[1,2-b]pyridazin-8-amine]",907,284,1400,100,–
"CC(C)n1cc(-c2cnc3c(NCc4nc5cc(Cl)c(Cl)cc5[nH]4)cc(N4CCN(C)CC4)nn23)cn1 [Cmpd 14, N-((5,6-dichloro-1H-benzo[d]imidazol-2-yl)methyl)-3-(1-isopropyl-1H-pyrazol-4-yl)-6-(4-methylpiperazin-1-yl) imidazo[1,2-b]pyridazin-8-amine]",5000,1770,10000,–,84
"CN1CCN(c2cc(NCc3nc4cc(Cl)c(Cl)cc4[nH]3)c3ncc(-c4cnn(C)c4)n3n2)CC1 [Cmpd 8, N-((5,6-dichloro-1H-benzo[d]imidazol-2-yl)methyl)-3-(1-methyl-1H-pyrazol-4-yl)-6-(4-methylpiperazin-1-yl) imidazo[1,2-b]pyridazin-8-amine]",10000,424,1300,100,–
"Cc1cc(-c2cnc3c(NCc4nc5c(F)c(F)ccc5[nH]4)cc(N4CCN(C)CC4)nn23)cs1 [Cmpd 96, N-((4,5-difluoro-1H-benzo[d]imidazol-2-yl)methyl)-6-(4-methylpiperazin-1-yl)-3-(5-methylthiophen-3-yl) imidazo[1,2-b]pyridazin-8-amine]",–,3110,1800,75,63

# Source: patent publication US20260055114A1, “IMIDAZO[1,2-B]PYRIDAZINE INHIBITORS OF CYCLIN-DEPENDENT KINASES” (H. LEE MOFFITT CANCER CENTER AND RESEARCH INSTITUTE, INC., priority 2022, published 2026)
